Data taken from article PMC3480348, “Structure and Activity Analysis of Inauhzin Analogs as Novel Antitumor Compounds That Induce p53 and Inhibit Cell Growth” (PLoS ONE, 2012).
Entries after “also recorded” stand apart in the source; their conditions may differ. Where two headings read alike, the source gives them in different places.

Assays:
H460 cells [1] = assay: 3-day WST-8 cell growth inhibition assay, H460; type: cell-based, human; details: for EC50: Homo sapiens, NCI-H460, 72 h WST-8, average of triplicates, highest concentration 50 µM, read-out: EC50, cell growth inhibition, H460 p53 wild type
H460 cells [2] = assay: 3-day WST-8 cell growth inhibition assay, H460; type: cell-based, human; details: for EC90: read-out: EC90, cell growth inhibition, H460 p53 wild type; for EC90 fold lower than that for INZ, H460: statement covers H460 and HCT116^+/+ together
Protocol: (§1) EC90 values were calculated from the EC50 and Hill slope by a web-based calculator: http://www.graphpad.com/quickcalcs/Ecanything1.cfm.

[3] = tested on: p53 level in H460 and HCT116^+/+ cells; assay: p53 induction by immunoblotting (IB), statement does not separate the cell lines; type: cell-based, human; details: 18 hrs, 0.5, 2, 10 µM
Description: (A–B) Initial Inauhzin analogs were purchased and tested the activity on H460 and HCT116^+/+ by immunoblotting (IB). […]

p53 level in H460 cells = assay: p53 induction by immunoblotting (IB) in H460 cells; type: cell-based, human; details: 2 µM, 18 hrs; IB normalized to GAPDH, compared to 2 µM INZ
[4] = tested on: p53 level in HCT116^+/+ cells; assay: p53 induction by immunoblotting (IB) in HCT116^+/+ cells; type: cell-based, human; details: 2 µM, 18 hrs; IB normalized to GAPDH, compared to 2 µM INZ
Protocol: as §1

HCT116^+/+ cells = assay: 3-day WST-8 cell growth inhibition assay, HCT116^+/+; type: cell-based, human; details: for EC90: read-out: EC90, cell growth inhibition, HCT116^+/+ p53 wild type; for EC50: HCT-116, 72 h WST-8, average of triplicates, highest concentration 50 µM, read-out: EC50, cell growth inhibition, HCT116^+/+ p53 wild type; for EC90 fold lower than that for INZ, HCT116^+/+: statement covers H460 and HCT116^+/+ together
Protocol: as §1

HCT116^−/− cells [5] = assay: 3-day WST-8 cell growth inhibition assay, HCT116^−/− (p53 null); type: cell-based, human; details: for EC50: Homo sapiens, HCT-116, 72 h WST-8, average of triplicates, highest concentration 100 µM; for effect on p53-null HCT116^−/− cells compared with p53-containing cells: in vitro cytotoxicity
H1299 cells = assay: 3-day WST-8 cell growth inhibition assay, H1299 (p53 null); type: cell-based, human; details: for EC50 / EC90: Homo sapiens; for EC50: NCI-H1299, 72 h WST-8, average of triplicates, highest concentration 100 µM; for effect on p53-null H1299 cells compared with p53-containing cells: in vitro cytotoxicity; for EC50 on H1299 fold higher than on H460 cells: p53-null H1299 vs p53-containing H460; for EC90: NCI-H1299, calculated from EC50 and Hill slope
Protocol: as §1

HCT116^−/− cells [6] = assay: 3-day WST-8 cell growth inhibition assay, HCT116^−/− (p53 null); type: cell-based; details: Homo sapiens, HCT-116, calculated from EC50 and Hill slope
Protocol: as §1

[7] = Homo sapiens, NCI-H460, calculated from EC50 and Hill slope (GraphPad web calculator)
[8] = Homo sapiens, HCT-116, calculated from EC50 and Hill slope

C=CCCC(=O)n1c2ccccc2c2nnc(SC(CC)C(=O)N3c4ccccc4Sc4ccccc43)nc21 (stereo not shown) [Compound 24, 1-(3-((1-oxo-1-(10H-phenothiazin-10-yl)butan-2-yl)thio)-5H-[1,2, 4]triazino[5,6-b]indol-5-yl)pent-4-en-1-one]
EC50 (H460 cells [1]): 5.7 ± 0.3 µM | EC90 (H460 cells [2]; [7]): 14.5 µM

C#CCCn1c2ccccc2c2nnc(SC(CC)C(=O)N3c4ccccc4Sc4ccccc43)nc21 (stereo not shown) [Compound 32, 2-((5(but-3-yn-1-yl)-5H-[1,2,4]triazino[5,6-b]indol-3-yl)thiol)-1-(10H-phenothiazin-10-yl)butan-1-one]
p53 induction / activation by synthetic analogs [3]: significant decrease in activity

CCOC(=O)CCCC(=O)n1c2ccccc2c2nnc(SC(CC)C(=O)N3c4ccccc4Sc4ccccc43)nc21 (stereo not shown) [Compound 27, Ethyl 5-oxo-5-(3-((1-oxo-1-(10H-phenothiazin-10-yl)butan-2-yl)thio)-5H-[1,2,4]triazino[5,6-b]indol-5-yl)pentanoate]
EC50 (H460 cells [1]): 3.4 ± 0.3 µM | EC90 (H460 cells [2]; [7]): 9 µM

CCCCC(Sc1nnc2c(n1)[nH]c1ccccc12)C(=O)N1c2ccccc2Sc2ccccc21 (stereo not shown) [Compound 14, 2-((5H-[1,2,4]triazino[5,6-b]indol-3-yl)thio)-1-(10H-phenothiazin-10-yl)hexan-1-one]
p53 induction / activation by synthetic analogs [3]: lower activity for p53 induction

CCC(Sc1nnc2c(n1)[nH]c1ccccc12)C(=O)N1c2ccccc2Sc2ccc(OC)cc21 (stereo not shown) [Compound 7, 2-((5H-[1,2,4]triazino[5,6-b]indol-3-yl)thio)-1-(2-methoxy-10H-phenothiazin-10-yl)butan-1-one]
p53 induction in H460 cells (p53 level in H460 cells): < 50% | p53 induction in HCT116^+/+ cells [4]: < 50% | p53 induction / activation by synthetic analogs [3]: remained active in p53 induction

CCC(Sc1nnc2c3ccccc3n(CCO)c2n1)C(=O)N1c2ccccc2Sc2ccccc21 (stereo not shown) [Compound 30, 2-((5(2-hydoxyethyl)-5H-[1,2,4]triazino[5,6-b]indol-5-yl)thiol)-1-(10H-phenothiazin-10-yl)butan-1-one]
EC50 (H460 cells [1]): 3.5 ± 0.4 µM | EC90 (H460 cells [2]; [7]): ~7.7 µM | EC90 fold lower than that for INZ, H460 (H460 cells [2]): 5 fold | EC90 (HCT116^+/+ cells; [8]): 4.6 µM | EC50 (HCT116^+/+ cells; Homo sapiens): 0.8 ± 0.5 µM | EC90 fold lower than that for INZ, HCT116^+/+ (HCT116^+/+ cells): 5 fold | EC50 (HCT116^−/− cells [5]): 7.8 ± 3.4 µM | effect on p53-null HCT116^−/− cells compared with p53-containing cells (HCT116^−/− cells [5]): much less effective | EC50 (H1299 cells): 16.6 µM | effect on p53-null H1299 cells compared with p53-containing cells (H1299 cells): much less effective | EC50 on H1299 fold higher than on H460 cells (H1299 cells): 3–15 fold | p53 induction / activation by synthetic analogs [3]: comparable to compound 8; also recorded: more potent in p53 activation than their parental compound INZ

CCCCCC(=O)C1(SC(CC)C(=O)N2c3ccccc3Sc3ccccc32)N=c2[nH]c3ccccc3c2=NN1 (stereo not shown) [Compound 23, 1-(3-((1-oxo-1-(10H-phenothiazin-10-yl)butan-2-yl)thio)-5H-[1,2,4]triazino[5,6-b]indol-3-yl)hexan-1-one]
EC50 (H460 cells [1]): 6.7 ± 0.7 µM | EC90 (H460 cells [2]; [7]): 22.6 µM

CCC(Sc1nnc2c(n1)[nH]c1ccccc12)C(=O)N1c2ccccc2Sc2ccccc21 (stereo not shown) [INZ, 2-((5H-[1,2,4]triazino[5,6-b]indole-3yl)thio)-1-(10H-phenothiazin-10-yl)butan-1-one]
EC50 (H460 cells [1]): 7.7 ± 1.1 µM | EC90 (HCT116^−/− cells [6]): 213 µM | EC90 (H460 cells [2]; [7]): 39.9 µM | EC90 (HCT116^+/+ cells; [8]): 30.5 µM | EC50 (HCT116^+/+ cells; Homo sapiens): 2.7 ± 0.3 µM | EC50 (HCT116^−/− cells [5]): 13.3 ± 2.4 µM | EC90 fold greater in p53-null cells than in p53-containing cell lines (H1299 cells; H1299, HCT116^−/− vs H460, HCT116^+/+): 5–7 fold | EC90 (H1299 cells): 217 µM | EC50 (H1299 cells): 11.6 ± 3.4 µM

CCC(Sc1nnc2c(n1)[nH]c1cc(C)ccc12)C(=O)N1c2ccccc2Sc2ccccc21 (stereo not shown) [Compound 19, 2-((7-methyl-5H-[1,2,4]triazino[5,6-b]indol-3-yl)thio)-1-(10H-phenothiazin-10-yl)butan-1-one]
EC50 (H460 cells [1]): 6 ± 0.6 µM | EC90 (HCT116^−/− cells [6]): > 1000 µM | EC90 (H460 cells [2]; [7]): 26.5 µM | EC90 (H460 cells [2]; calculated from EC50 and Hill slope (GraphPad web calculator)): 20 to 30 µM | EC90 fold lower than that for INZ, H460 (H460 cells [2]): 1.5 fold | EC90 (HCT116^+/+ cells; [8]): 29.7 µM | EC50 (HCT116^+/+ cells; Homo sapiens): 2.2 ± 0.2 µM | EC90 (HCT116^+/+ cells; calculated from EC50 and Hill slope): 20 to 30 µM | EC50 (HCT116^−/− cells [5]): 44.2 ± 10.3 µM | effect on p53-null HCT116^−/− cells compared with p53-containing cells (HCT116^−/− cells [5]): much less effective | EC90 (H1299 cells): 173 µM | EC50 (H1299 cells): 40.2 ± 7.4 µM | effect on p53-null H1299 cells compared with p53-containing cells (H1299 cells): much less effective | p53 induction / activation by synthetic analogs [3]: significant effect on p53 induction compared to INZ at 0.5 µM

CCC(Sc1nnc2c3ccccc3n(CC(=O)c3ccccc3)c2n1)C(=O)N1c2ccccc2Sc2ccccc21 (stereo not shown) [Compound 33, 2-((5-(2-oxo-2-phenylethyl)-5H-[1,2,4]triazino[5,6-b]indol-3-yl)thiol)-1-(10H-phenothiazin-10-yl)butan-1-one]
p53 induction / activation by synthetic analogs [3]: significant decrease in activity

CCOC(=O)Cn1c2ccccc2c2nnc(SC(CC)C(=O)N3c4ccccc4Sc4ccccc43)nc21 (stereo not shown) [Compound 28, Ethyl 2-(3-((1-oxo-1-(10H-phenothiazin-10-yl)butan-2-yl)thio)-5H-[1,2,4]triazino[5,6-b]indol-5-yl)acetate]
p53 induction / activation by synthetic analogs [3]: essentially inactive

CCC(Sc1nnc2c(n1)[nH]c1cc(OC)ccc12)C(=O)N1c2ccccc2Sc2ccccc21 (stereo not shown) [Compound 18, 2-((7-methoxy-5H-[1,2,4]triazino[5,6-b]indol-3-yl)thio)-1-(10H-phenothiazin-10-yl)butan-1-one]
p53 induction / activation by synthetic analogs [3]: marked decrease in p53 activation

CCC(Sc1nnc2c3ccccc3n(C(=O)c3ccccc3)c2n1)C(=O)N1c2ccccc2Sc2ccccc21 (stereo not shown) [Compound 21, 2-((5-benzoyl-5H-[1,2,4]triazino[5,6-b]indol-3-yl)thio)-1-(10H-phenothiazin-10-yl)butan-1-one]
EC50 (H460 cells [1]): 4.3 ± 0.3 µM | EC90 (HCT116^−/− cells [6]): > 1000 µM | EC90 (H460 cells [2]; [7]): 9.6 µM | EC90 (HCT116^+/+ cells; [8]): 21.9 µM | EC50 (HCT116^+/+ cells; Homo sapiens): 2.1 ± 1 µM | EC50 (HCT116^−/− cells [5]): 28.2 ± 1.4 µM | effect on p53-null HCT116^−/− cells compared with p53-containing cells (HCT116^−/− cells [5]): much less effective | EC90 (H1299 cells): 82.3 µM | EC50 (H1299 cells): 12.6 ± 1.4 µM | effect on p53-null H1299 cells compared with p53-containing cells (H1299 cells): much less effective

CCC(Sc1nnc2c(n1)[nH]c1ccccc12)C(=O)N1c2ccccc2Oc2ccccc21 (stereo not shown) [Compound 9, 2-((5H-[1,2,4]triazino[5,6-b]indol-3-yl)thio)-1-(10H-phenoxazin-10-yl)butan-1-one]
p53 induction / activation by synthetic analogs [3]: inactive

CCC(Sc1nnc2c(n1)[nH]c1ccccc12)C(=O)N1c2ccccc2Cc2ccccc21 (stereo not shown) [Compound 8, 2-((5H-[1,2,4]triazino[5,6-b]indol-3-yl)thio)-1-(acridin-10(9H)-yl)butan-1-one]
fold higher potency than INZ in growth inhibition of H460 cells (H460 cells [1]; EC50 compared with INZ): more than 2 fold | EC50 (H460 cells [1]): 2.7 µM | EC90 (H460 cells [2]; [7]): 3.5 to 10 µM | EC90 fold lower than that for INZ, H460 (H460 cells [2]): 3–10 fold | fold higher potency than INZ in growth inhibition of HCT116^+/+ cells (HCT116^+/+ cells; EC50 compared with INZ): more than 2 fold | EC50 (HCT116^+/+ cells; Homo sapiens): 1.3 µM | EC90 fold lower than that for INZ, HCT116^+/+ (HCT116^+/+ cells): 3–10 fold | EC50 (HCT116^−/− cells [5]): 5.9 ± 1 µM | effect on p53-null HCT116^−/− cells compared with p53-containing cells (HCT116^−/− cells [5]): much less effective | EC50 (H1299 cells): 10.4 µM | effect on p53-null H1299 cells compared with p53-containing cells (H1299 cells): much less effective | EC50 on H1299 fold higher than on H460 cells (H1299 cells): 3–15 fold | p53 induction / activation by synthetic analogs [3]: drastically induced p53 at 0.5 µM; also recorded: greater potentcy than compound 1; also recorded: more potent in p53 activation than their parental compound INZ

CCC(Sc1nnc2c3ccccc3n(CC(=O)O)c2n1)C(=O)N1c2ccccc2Sc2ccccc21 (stereo not shown) [Compound 29, 2-(3-((1-oxo-1-(10H-phenothiazin-10-yl)butan-2-yl)thio)-5H-[1,2,4]triazino[5,6-b]indol-5-yl)acetic acid]
p53 induction / activation by synthetic analogs [3]: essentially inactive

CCC(Sc1nnc2c(n1)[nH]c1cc(F)ccc12)C(=O)N1c2ccccc2Sc2ccccc21 (stereo not shown) [Compound 15, 2-((7-fluoro-5H-[1,2,4]triazino[5,6-b]indol-3-yl)thio)-1-(10H-phenothiazin-10-yl)butan-1-one]
p53 induction / activation by synthetic analogs [3]: inactive

CCC(Sc1nnc2c3ccccc3n(C(=O)c3cccnc3)c2n1)C(=O)N1c2ccccc2Sc2ccccc21 (stereo not shown) [Compound 22, 2-((5-nicotinoyl-5H-[1,2,4]triazino[5,6-b]indol-3-yl)thio)-1-(10H-phenothiazin-10-yl)butan-1-one]
EC50 (H460 cells [1]): 4.9 ± 1 µM | EC90 (H460 cells [2]; [7]): 20.5 µM

CCC(Sc1nnc2c3ccccc3n(C(=O)CCCCBr)c2n1)C(=O)N1c2ccccc2Sc2ccccc21 (stereo not shown) [Compound 26, 5-bromo-1-(3-((1-oxo-1-(10H-phenothiazin-10-yl)butan-2-yl)thio)-5H-[1,2, 4]triazino[5,6-b]indol-5-yl)pentan-1-one]
EC50 (H460 cells [1]): 16 ± 0.9 µM | EC90 (H460 cells [2]; [7]): 38.2 µM
